Source: patent US10894798B2, “Substituted dihydropyrrolopyrazole derivative” (UBE INDUSTRIES, LTD., priority 2015, dated 2021)

Legend:
[1] = molecular target: T1, CDK2 (Homo sapiens, UniProt P24941); experiment: CDK2 enzyme inhibition test; assay type: biochemical; details: [γ-33P]ATP, MBP substrate; Ki=IC50/(1+S/Km); read-out: Ki value of CDK2 inhibitory activity
T1 construct: purchased Invitrogen Corp. PV3267
Protocol: (§1) The preparation of a buffer solution was performed by mixing a N-2-hydroxyethylpiperazine-N′-2-ethanesulfonic acid buffer solution (HEPES buffer solution) (pH 7.4), dithiothreitol (DTT), Triton X-100, and magnesium chloride (MgCl2). A 500 μM [γ-^33P]ATP solution was used by diluting a 10 mM ATP solution and a commercially available [γ-^33P]ATP solution (manufactured by Perkin Elmer, Inc., Code No. NEG-302H) with the buffer solution. A CDK2 solution was used by diluting commercially available CDK2 (manufactured by Invitrogen Corp., Catalog No. PV3267) with the buffer solution. A substrate solution was used by diluting myelin basic protein (MBP) with the buffer solution. As for the preparation of a reaction solution, the buffer solution, the 500 μM [γ-^33P]ATP solution, the CDK2 solution, and the substrate solution were mixed at 4° C. to obtain a reaction solution.
(§2) CDK2 enzyme reaction was performed by adding 5 μL of a test compound solution prepared with 10% DMSO/90% injectable distilled water, and 45 μL of the reaction solution in a 1.5 mL microtube at 4° C. and reacting in the microtube at 30° C. for 20 minutes in a water bath incubator. After the reaction, a 10% aqueous trichloroacetic acid (TCA) solution was added to each microtube while cooled to 4° C., and mixed in a vortex mixer to terminate the reaction. The resultant was left standing at 4° C. for 10 minutes and then centrifuged, and the supernatant was discarded. Next, a 2% aqueous trichloroacetic acid (TCA) solution was added thereto, mixed in vortex mixer, and then centrifuged, and the supernatant was discarded. This washing operation was performed twice. After the washing, precipitates were dissolved in a 1 N aqueous sodium hydroxide (NaOH) solution, and the energy quantity (radioactivity) of the reaction product was measured with a liquid scintillation counter.
The calculation of the inhibitory activity of the test compound against CDK2 was performed as a test compound concentration inhibiting 50% of the amount of ^33P bound to MBP (IC50 value) by using EXSUS (version 8.1.0, manufactured by CAC Exicare Corp.).
(§3) The calculation of a Ki value was performed according to the following calculation expression wherein S represents the concentration of ATP contained in the reaction solution, and Km represents a Michaelis-Menten constant: Ki=IC50/(1+S/Km)

[2] = molecular target: T2, PLK1 (Homo sapiens, UniProt P53350); experiment: PLK1 enzyme (polo-like kinase) inhibition test; assay type: biochemical; details: [γ-33P]ATP, casein substrate; Ki=IC50/(1+S/Km); read-out: Ki value of PLK1 inhibitory activity
T2 construct: purchased Carna Biosciences, Inc. 05-157
T2 sequence (P53350 whole entry): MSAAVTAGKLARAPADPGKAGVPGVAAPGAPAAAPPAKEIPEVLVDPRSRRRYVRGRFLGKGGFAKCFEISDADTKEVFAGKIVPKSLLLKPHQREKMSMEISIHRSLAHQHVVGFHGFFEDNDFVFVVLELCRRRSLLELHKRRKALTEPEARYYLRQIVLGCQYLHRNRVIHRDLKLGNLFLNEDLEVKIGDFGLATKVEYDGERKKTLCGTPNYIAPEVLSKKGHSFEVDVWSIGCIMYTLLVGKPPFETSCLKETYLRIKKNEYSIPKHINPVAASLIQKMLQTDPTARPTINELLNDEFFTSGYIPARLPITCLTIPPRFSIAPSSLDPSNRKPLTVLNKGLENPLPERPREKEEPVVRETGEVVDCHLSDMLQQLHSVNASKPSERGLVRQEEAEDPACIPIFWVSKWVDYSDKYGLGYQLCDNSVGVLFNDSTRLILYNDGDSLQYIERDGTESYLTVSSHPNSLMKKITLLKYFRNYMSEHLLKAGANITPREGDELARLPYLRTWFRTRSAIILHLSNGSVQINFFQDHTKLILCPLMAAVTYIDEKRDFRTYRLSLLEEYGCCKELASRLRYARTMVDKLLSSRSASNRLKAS
Protocol: The preparation of a buffer solution was performed by mixing a 3-morpholinopropanesulfonic acid buffer solution (MOPS buffer solution) (pH 7.0), dithiothreitol (DTT), and magnesium acetate (Mg(CH3COO)2). A 1 mM [γ-^33P]ATP solution was used by diluting a 10 mM ATP solution and a commercially available [γ-^33P]ATP solution (manufactured by Perkin Elmer, Inc., Code No. NEG-302H) with the buffer solution. A PLK1 solution was used by diluting commercially available PLK1 (manufactured by Carna Biosciences, Inc., Catalog No. 05-157) with the buffer solution. A substrate solution was used by diluting casein with the buffer solution. As for the preparation of a reaction solution, the buffer solution, the 500 μM [γ-^33P]ATP solution, the PLK1 solution, and the substrate solution were mixed at 4° C. to obtain a reaction solution.
as §2, with “PLK1 enzyme reaction” for “CDK2 enzyme reaction”, “mixed in a vortex mixer,” for “mixed in vortex mixer,”
The calculation of the inhibitory activity of the test compound against PLK1 was performed as a test compound concentration inhibiting 50% of the amount of ^33P bound to casein (IC50 value) by using EXSUS (version 8.1.0, manufactured by CAC Exicare Corp.).
as §3

[3] = molecular target: T3, CDK7 (Homo sapiens, UniProt P50613); experiment: CDK7 enzyme inhibition test; assay type: biochemical; details: [γ-33P]ATP, MBP substrate, 60 min preincubation at 25°C; Ki=IC50/(1+S/Km); read-out: Ki value of CDK7 inhibitory activity
T3 construct: purchased Carna Biosciences, Inc. 04-108
T3 sequence (P50613 whole entry): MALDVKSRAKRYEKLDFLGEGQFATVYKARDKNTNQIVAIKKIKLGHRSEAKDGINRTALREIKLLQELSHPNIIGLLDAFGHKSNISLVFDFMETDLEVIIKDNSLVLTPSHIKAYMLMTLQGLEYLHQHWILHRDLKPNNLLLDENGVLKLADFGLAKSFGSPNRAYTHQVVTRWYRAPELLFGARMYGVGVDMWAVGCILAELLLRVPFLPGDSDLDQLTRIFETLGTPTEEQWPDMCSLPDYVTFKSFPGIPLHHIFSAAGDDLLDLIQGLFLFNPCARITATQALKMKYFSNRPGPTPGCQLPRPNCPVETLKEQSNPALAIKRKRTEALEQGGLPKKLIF
T3 sequence (P51946 whole entry partner): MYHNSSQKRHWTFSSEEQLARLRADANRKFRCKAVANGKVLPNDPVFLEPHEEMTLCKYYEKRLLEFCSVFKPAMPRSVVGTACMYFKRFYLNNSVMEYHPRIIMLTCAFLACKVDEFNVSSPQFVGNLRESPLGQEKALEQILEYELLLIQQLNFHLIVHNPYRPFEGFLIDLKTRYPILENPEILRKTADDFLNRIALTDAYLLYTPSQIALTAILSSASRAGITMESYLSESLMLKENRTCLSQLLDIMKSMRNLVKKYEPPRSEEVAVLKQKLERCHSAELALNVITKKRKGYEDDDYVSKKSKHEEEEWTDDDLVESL
T3 sequence (P51948 whole entry partner): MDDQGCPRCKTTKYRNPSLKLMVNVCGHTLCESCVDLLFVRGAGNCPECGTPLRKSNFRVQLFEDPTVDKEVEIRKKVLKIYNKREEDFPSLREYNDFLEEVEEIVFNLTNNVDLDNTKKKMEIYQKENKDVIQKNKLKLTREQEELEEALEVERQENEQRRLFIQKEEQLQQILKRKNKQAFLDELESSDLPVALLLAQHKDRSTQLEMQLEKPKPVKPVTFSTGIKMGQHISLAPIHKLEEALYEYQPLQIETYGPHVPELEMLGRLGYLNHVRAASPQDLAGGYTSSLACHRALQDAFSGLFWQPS
Protocol: as §1, with “PerkinElmer,” for “Perkin Elmer,”, “CDK7” for “CDK2”, “Carna Biosciences, Inc.,” for “Invitrogen Corp.,”, “04-108)” for “PV3267)”, “CDK7” for “500 μM [γ-^33P]ATP solution, the CDK2”
CDK7 enzyme reaction was performed by adding 5 μL of a test compound solution prepared with 10% DMSO/90% injectable distilled water, and 40 μL of the reaction solution to a 1.5 mL microtube at 4° C. and preincubating the microtube at 25° C. for 60 minutes in a water bath incubator. Subsequently, reaction was performed at 30° C. for 20 minutes by adding 5 μL of the 500 μM [γ-^33P]ATP solution. After the reaction, a 10% aqueous trichloroacetic acid (TCA) solution was added to each microtube while cooled to 4° C., and mixed in a vortex mixer to terminate the reaction. The resultant was left standing at 4° C. for 10 minutes and then centrifuged, and the supernatant was discarded. Next, a 2% aqueous trichloroacetic acid (TCA) solution was added thereto, mixed in a vortex mixer, and then centrifuged, and the supernatant was discarded. This washing operation was performed twice. After the washing, precipitates were dissolved in a 1 N aqueous sodium hydroxide (NaOH) solution, and the energy quantity (radioactivity) of the reaction product was measured with a liquid scintillation counter.
The calculation of the inhibitory activity of the test compound against CDK7 was performed as a test compound concentration inhibiting 50% of the amount of ^33P bound to MBP (IC50 value) by using EXSUS (version 8.1.0, manufactured by CAC Exicare Corp.).
as §3

[4] = test system: human large intestine cancer cell line (HCT-116); experiment: Human large intestine cancer (HCT-116) cell growth inhibition test; assay type: cell-based; details: HCT-116, 72 h, culture for 3 days, sulforhodamine B, read-out: GI50 value, HCT-116 cell growth inhibition
Protocol: The measurement of a human large intestine cancer cell growth inhibitory effect was carried out by modifying the method of Simak et al. (Cancer Research, 69, 6208 (2009)).
A human large intestine cancer cell line (HCT-116, obtained from DS Pharma Biomedical Co., Ltd.) was cultured in a McCoy's 5A medium (manufactured by Thermo Fisher Scientific, Inc.) containing 10% fetal bovine serum (FBS) (manufactured by Thermo Fisher Scientific, Inc.) and 1% penicillin/streptomycin/amphotericin B (manufactured by Thermo Fisher Scientific, Inc.) and inoculated at 0.5 to 2.0×10^3 cells/well in a 96-well plate. After overnight culture in a carbon dioxide incubator, the medium was replaced with a fresh medium on the next day, and a test compound dissolved in DMSO (final DMSO concentration: 0.1%) was added thereto and left standing in a carbon dioxide incubator. After culture for 3 days, the absorbance thereof was measured by using In Vitro Toxicology Assay Kit Sulforhodamine B based (manufactured by Sigma-Aldrich Co. LLC.).
The rate of inhibition of cell growth at each concentration was calculated from the test compound concentration and the absorbance of sulforhodamine B, and the concentration of the test compound necessary for inhibiting 50% of cell growth (GI50 value) was calculated by using EXSUS (version 8.1.0, manufactured by CAC Exicare Corp.).

CCc1cccc(F)c1NC(=O)N1Cc2c(NC(=O)C(C)(C)[Si](C)(C)C)n[nH]c2C1(C)C [II-137, N-(2-Ethyl-6-fluorophenyl)-6,6-dimethyl-3-[2-methyl-2-(trimethylsilyl)propanamido]-4,6-dihydropyrrolo[3,4-c]pyrazole-5(1H)-carboxamide]
Ki [1]: ≥ 1000 nM | Ki [2]: ≥ 5000 nM | Ki [3]: ≤ 50 nM | GI50 [4]: ≤ 100 nM

CC1(C)c2[nH]nc(NC(=O)C(C)(C)[Si](C)(C)C)c2CN1C(=O)Nc1c(F)cccc1OC(F)F [II-169, N-[2-(Difluoromethoxy)-6-fluorophenyl]-6,6-dimethyl-3-[2-methyl-2-(trimethylsilyl)propanamido]-4,6-dihydropyrrolo[3,4-c]pyrazole-5(1H)-carboxamide]
Ki [1]: ≥ 1000 nM | Ki [2]: ≥ 5000 nM | Ki [3]: ≤ 50 nM | GI50 [4]: ≤ 100 nM

CC1(C)c2[nH]nc(NC(=O)C(C)(C)[Si](C)(C)C)c2CN1C(=O)Nc1c(Cl)cccc1Cl [II-199, N-(2,6-Dichlorophenyl)-6,6-dimethyl-3-[2-methyl-2-(trimethylsilyl)propanamido]-4,6-dihydropyrrolo[3,4-c]pyrazole-5(1H)-carboxamide]
Ki [1]: ≥ 1000 nM | Ki [2]: ≥ 5000 nM | Ki [3]: ≤ 50 nM | GI50 [4]: ≤ 100 nM

CC1(C)c2[nH]nc(NC(=O)C(C)(C)[Si](C)(C)C)c2CN1C(=O)Nc1c(F)ccc2ccoc12 [II-1049, N-(6-Fluorobenzofuran-7-yl)-6,6-dimethyl-3-[2-methyl-2-(trimethylsilyl)propanamido]-4,6-dihydropyrrolo[3,4-c]pyrazole-5(1H)-carboxamide]
Ki [1]: ≥ 1000 nM | Ki [2]: ≥ 5000 nM | Ki [3]: ≤ 50 nM | GI50 [4]: ≤ 100 nM

CCc1cccc(F)c1NC(=O)N1Cc2c(NC(=O)C3([Si](C)(C)C)CC3)n[nH]c2C1(C)C [III-137, N-(2-Ethyl-6-fluorophenyl)-6,6-dimethyl-3-[1-(trimethylsilyl)cyclopropanecarboxamido]-4,6-dihydropyrrolo[3,4-c]pyrazole-5 (1H)-carboxamide]
Ki [1]: ≥ 1000 nM | Ki [2]: ≥ 5000 nM | Ki [3]: ≤ 50 nM | GI50 [4]: ≤ 100 nM

CC1(C)c2[nH]nc(NC(=O)C3([Si](C)(C)C)CC3)c2CN1C(=O)Nc1c(F)cccc1OC(F)F [III-169, N-[2-(Difluoromethoxy)-6-fluorophenyl]-6,6-dimethyl-3-[1-(trimethylsilyl)cyclopropanecarboxamido]-4,6-dihydropyrrolo[3,4-c]pyrazole-5(1H)-carboxamide]
Ki [1]: ≥ 1000 nM | Ki [2]: ≥ 5000 nM | Ki [3]: ≤ 50 nM | GI50 [4]: ≤ 100 nM

CC1(C)c2[nH]nc(NC(=O)C3([Si](C)(C)C)CC3)c2CN1C(=O)Nc1c(Cl)cccc1Cl [III-199, N-(2,6-Dichlorophenyl)-6,6-dimethyl-3-[1-(trimethylsilyl)cyclopropanecarboxamido]-4,6-dihydropyrrolo[3,4-c]pyrazole-5(1H)-carboxamide]
Ki [1]: ≥ 1000 nM | Ki [2]: ≥ 5000 nM | Ki [3]: ≤ 50 nM | GI50 [4]: ≤ 100 nM

CC1(C)c2[nH]nc(NC(=O)C3([Si](C)(C)C)CC3)c2CN1C(=O)Nc1c(F)ccc2ccoc12 [III-1049, N-(6-Fluorobenzofuran-7-yl)-6,6-dimethyl-3-[1-(trimethylsilyl)cyclopropanecarboxamido]-4,6-dihydropyrrolo[3,4-c]pyrazole-5 (1H)-carboxamide]
Ki [1]: ≥ 1000 nM | Ki [2]: ≥ 5000 nM | Ki [3]: ≤ 50 nM | GI50 [4]: ≤ 100 nM

CCc1ccccc1NC(=O)N1Cc2c(NC(=O)C3([Si](C)(C)C)CCC3)n[nH]c2C1(C)C [IV-27, N-(2-Ethylphenyl)-6,6-dimethyl-3-[1-(trimethylsilyl)cyclobutanecarboxamido]-4,6-dihydropyrrolo[3,4-c]pyrazole-5(1H)-carboxamide]
Ki [1]: ≥ 1000 nM | Ki [2]: ≥ 5000 nM | Ki [3]: ≤ 50 nM | GI50 [4]: ≤ 100 nM

CC1(C)c2[nH]nc(NC(=O)C3([Si](C)(C)C)CCC3)c2CN1C(=O)Nc1ccccc1C1CC1 [IV-39, N-(2-Cyclopropylphenyl)-6,6-dimethyl-3-[1-(trimethylsilyl)cyclobutanecarboxamido]-4,6-dihydropyrrolo[3,4-c]pyrazole-5(1H)-carboxamide]
Ki [1]: ≥ 1000 nM | Ki [2]: ≥ 5000 nM | Ki [3]: ≤ 50 nM | GI50 [4]: ≤ 100 nM
